Several values for one entry are separate records, joined by “and”; a condition that tells them apart may be missing. Equal values may be shown once. Marks after values point to notes of the source that are not given here.

Data set [1] concerns rats, thromboembolic stroke (MCA occlusion). The experiment in a line: Rat model of thromboembolic stroke (MCA occlusion by preformed clot), apyrase agent plus aspirin (Example 2). The data set is classed as in vivo. To be noted: for Neurological deficits, median (interquartile range 25th to 75th), modified Bederson score: n = 10. The protocol: In this study, four experimental groups were included (n=10):
(1) control, saline injected gastrically;
(2) aspirin, 1.25 mg/kg (equivalent to 100 mg/day dose in human) injected gastrically once a day, starting 3 days prior to middle cerebral artery (MCA) occlusion and also MCA occlusion until the end of each experiment;
(3) apyrase, dose at 0.75 mg/kg injected IV at 2 h after MCA occlusion;
(4) combination group, aspirin and apyrase agent.
In this clinically relevant embolic model, ischemic brain injury was induced by embolizing preformed clots into the middle cerebral artery (MCA). Ten microliters of blood were withdrawn into a catheter and retained for 15 min to allow formation of a clot. Once the clot was formed, the catheter was advanced 17 mm in the ICA until its tip was 1-2 mm away from the origin of the MCA. The preformed clot in the catheter was then injected, and the catheter was removed. […]
Infarct was measured in the brain section stained with 2,3,5-triphenyltetrazolium chloride (TTC) solution. The infarct volume was expressed as a percentage of the total volume from the ipsilateral hemisphere.
Brain swelling (edema) was determined using a formula: edema=(the volume of the right hemisphere—the volume of the left hemisphere)/the volume of the left hemisphere.
Neurological deficits were determined using a modified Bederson's scoring system as following: 0: no observable deficit; 1: forelimb flexion; 2: forelimb flexion plus decreased resistance to lateral push; 3: unidirectional circling; 4: unidirectional circling plus decreased level of consciousness.
Hemorrhagic transformation was quantified by detection of extracellular hemoglobin content in brain homogenates using Drabkin's reagents.

The subject of data set [2] is pigs, coronary injury with stenting. The experiment in a line: Coronary injury (balloon overstretch) and bare metal stent in pigs: platelet accumulation and luminal stenosis (Example 6). The data set is classed as in vivo, pig. The protocol:
Coronary injury with or without stenting in pigs is regarded as the best preclinical model for simulation of human angioplasty (Touchard, A. G., et al., Thromb. Res. (2007) 120:477-484). One coronary artery was injured by balloon overstretch in each pig and the site of injury including some overlap with the non-injured vessel was covered with a single bare metal stent (BMS).
Accumulation of ^111In-labeled autologous platelets on the stents over the first 24 h was measured in 4/6 pigs in each group. Radiolabeled platelets were injected 15 min before the coronary catheterization and the hearts perfusion-fixed after 24 h to obtain the stented vessel segment for counting radiolabeled platelets.

For data set [3], the system named is dogs, coronary thrombotic occlusion. The data set is described as follows: Canine coronary thrombosis and fibrinolysis model, adjunctive treatment with rtPA (Example 7). The data set is classed as in vivo, dog. As to conditions: dogs. As for the experimental part:
Thrombotic occlusion was induced by electrical injury to a coronary artery in dogs. […] Buccal mucosa bleeding times, PT, and aPTT were measured as indices of bleeding risk. After 24 hours of reperfusion, infarct size was determined by Evan's blue and triphenyltetrazolium chloride double staining. This protocol is illustrated in FIG. 7.

Data set [4] deals with pigs, coronary injury with stenting. The data set is described as follows: Coronary injury and stent in pigs: hematology, blood chemistry, coagulation, bleeding and inflammation markers (Example 6). As to conditions: for ALT / AST / AlkPh / BUN / Creat / Glu / HGB / K / Na / PCV / Platelets / RBC / Tot. Prot / WBC: single animals and mean ± std. dev.
In data set [5] the test system is ADP-induced platelet aggregation. The data set is described as follows: Ex vivo ADP-induced platelet aggregation in platelet-rich plasma after dosing rabbits. Further details: species or system rabbit. As to conditions: clopidogrel 10 mg/kg oral. An excerpt:
Blood samples taken at various time points were heparinized.
Data are presented as relative light transmission versus time.

For data set [6] the test system is unchanged. The data set is described as follows: Ex vivo ADP-induced platelet aggregation in platelet-rich plasma in pigs (Example 5). More on the design: species or system pig.
In data set [7] the test system is rats, embolic stroke (thrombus injection into internal carotid artery). The data set is described as follows: Embolic stroke model in rats, apyrase agent with or without r-tPA (Example 1). The data set is classed as in vivo, rat. To be noted: r-tPA 10 mg/kg alone; brains at 3 days. The protocol: The following groups were included in this study:
(1) control (saline treated), n=11;
(2) apyrase agent at 0.75 mg/kg, n=4;
(3) apyrase agent at 2.25 mg/kg, n=4;
(4) r-tPA (at 10 mg/kg), n=4;
(5) apyrase agent at 0.75 mg/kg plus r-tPA (10 mg/kg) and
(6) apyrase agent at 2.25 mg/kg plus r-tPA (10 mg/kg) (n=10).
All the treatments were initiated at 2 h following thrombus injection into internal carotid artery. Infarct volume and behavioral deficit were determined at day 3 after the stroke.

Setting [8] is: aspirin 5 mg/kg, clopidogrel 4 mg/kg.
Setting [9] is: by the end of adjunctive therapy.

With `CC(=O)Oc1ccccc1C(=O)O` [aspirin], the “Neurological deficits, median (interquartile range 25th to 75th), modified Bederson score” value (“Neurological deficits, median” for short) in data set [1] (4 h after MCA occlusion) came out at 3. Besides, the “Neurological deficits, median” value in data set [1] (4 h after MCA occlusion, listed as Aspirin (ASA)) is 3 (2-4). For the same compound, the “Neurological deficits, median” value in data set [1] (8 h after MCA occlusion) is on record as 2.5 (2-3). For the same compound, in data set [1] (24 h after MCA occlusion, aspirin 1.25 mg/kg gastrically once a day from 3 days prior, apyrase 0.75 mg/kg IV at 2 h), the “infarct volume, percentage of the total volume of the ipsilateral hemisphere (mean±SD)” value worked out at 20.69±2.85%. The “Neurological deficits, median” value in data set [1] (24 h after MCA occlusion) was “significantly less severe than the control group”. For the same compound, the “Neurological deficits, median” value in data set [1] (24 h after MCA occlusion, listed as Aspirin (ASA)) is on record as 1.5 (1-2)*. The “extracellular hemoglobin content in brain homogenates (hemorrhagic transformation, Drabkin's reagents)” value in data set [1] (24 h after ischemic injury) was determined as 0.93±0.11. Also, the “brain edema (brain swelling)” value in data set [1] (24 h after ischemic injury, aspirin 1.25 mg/kg, apyrase 0.75 mg/kg IV at 2 h) was 6.81±0.56%. In data set [2] (30 days after stenting, six measurements in two pigs), this compound came in with an average luminal stenosis of 29.6±6%. Also, the “accumulation of radiolabeled platelets on stented coronaries” value in data set [2] (after 24 h, apyrase […] or clopidogrel 8 mg/kg, each with aspirin 10 mg/kg and heparin) is 5.5×10^5 platelets/mm^2. Moreover, in data set [3] (setting [8]), the Re-occlusion rate came out at 100% and the Re-occlusion time is reported as 81′. In data set [3] (aspirin 5 mg/kg, clopidogrel 4 mg/kg, after r-tPA), the “Reperfusion Time” value was 23′. Besides, in data set [4], the ALT was 48 u/L and 25 u/L and 52 u/L and 50 u/L and 106 u/L; the AST was 45 u/L and 24 u/L and 38 u/L and 29 u/L and 211 u/L; the AlkPh is 95 u/L and 68 u/L and 132 u/L and 117 u/L and 235 u/L; the BUN was 12 mg/dL and 10 mg/dL and 4 mg/dL and 7 mg/dL and 11 mg/dL. In data set [4], the Creat was 1.1 mg/dL (4×) and 0.9 mg/dL; the Glu is 30 mg/dL and 38 mg/dL and 49 mg/dL and 20 mg/dL and 58 mg/dL; the HGB is 9.3 g/dL and 8.1 g/dL (3×) and 7.2 g/dL; the K is 3.5 mmol/L and 3.3 mmol/L and 3.6 mmol/L and 3.2 mmol/L and 2.7 mmol/L. In addition, in data set [4], the Na was 135 mmol/L and 140 mmol/L and 138 mmol/L and 144 mmol/L and 117 mmol/L; the PCV was 26.8% and 27.7% and 23.9% and 22.8% and 20.7%; the Platelets is 301 thns/uL and 498 thns/uL and 355 thns/uL and 499 thns/uL and 213 thns/uL; the RBC is 5.19 mil/uL and 4.75 mil/uL and 4.9 mil/uL and 5.07 mil/uL and 4.52 mil/uL. In data set [4], the “Tot. Prot” value is 6 g/dL and 4.5 g/dL and 4 g/dL and 5 g/dL and 4.2 g/dL; the WBC was 10.3 thns/uL and 16.4 thns/uL and 13.2 thns/uL and 13.9 thns/uL and 13.3 thns/uL.

Take `COC(=O)[C@H](c1ccccc1Cl)N1CCc2sccc2C1` [clopidogrel]: in data set [5], the “time after treatment at which significant effect on platelet aggregation was observed” value is recorded as 5 h. In addition, the “platelet aggregation by 24 h” value in data set [6] (24 h after dosing) is on record as “persistent inhibition of aggregation”. The “time after dosing at which significant inhibition of ADP-induced platelet aggregation began” value in data set [6] (clopidogrel 8 mg/kg gavage plus aspirin and heparin) stood at 5 h. Besides, the “buccal mucosa bleeding time” value in data set [3] is given as “significantly prolonged”. In addition, in data set [3] (setting [9]), the PT result is “increased” and the aPTT result was “increased”. Also, the “blood loss from a standardized incision of the abdominal wall” value in data set [4] (2 and 24 h, blood collected over 5 min) is listed as “trend for an increase in blood loss by 24 h”. For the same compound, in data set [4] (2 and 24 h, scalpel cut at the edge of the ear), the “template bleeding times relative to apyrase agent or control pigs” value was roughly 3 fold. Further, in data set [4] (3, 8 and 24 h after gavage), the “PT compared to baseline” value was “increased significantly compared to baseline”. Besides, in data set [4] (during the time of heparinization), the aPTT entry was “the increase was significant only in clopidogrel-treated pigs”. In data set [4], the ALT is 47 u/L and 65 u/L and 45 u/L (2×) and 43 u/L and 77 u/L; the AST is 61 u/L and 63 u/L and 57 u/L and 31 u/L and 44 u/L and 64 u/L; the AlkPh was 131 u/L and 111 u/L and 225 u/L and 180 u/L (2×) and 184 u/L; the BUN is 13 mg/dL and 12 mg/dL and 8 mg/dL and 7 mg/dL and 11 mg/dL and 5 mg/dL. Further, in data set [4], the Creat was 0.9 mg/dL (4×) and 1 mg/dL (2×); the Glu is 20 mg/dL and 33 mg/dL and 69 mg/dL and 40 mg/dL (2×) and 30 mg/dL; the HGB is 7.6 g/dL and 7.8 g/dL and 6.7 g/dL and 9.2 g/dL and 9 g/dL and 8.5 g/dL; the K was 4.3 mmol/L and 4.2 mmol/L (2×) and 3.5 mmol/L and 4.4 mmol/L (2×). For the same compound, in data set [4], the Na is 131 mmol/L and 132 mmol/L and 119 mmol/L and 140 mmol/L and 134 mmol/L and 138 mmol/L; the PCV was 21.4% and 22.9% and 20.8% and 28% and 25% and 25.8%; the Platelets was 248 thns/uL and 347 thns/uL and 345 thns/uL and 294 thns/uL and 298 thns/uL and 225 thns/uL; the RBC was 4.3 mil/uL and 4.7 mil/uL (2×) and 4.6 mil/uL and 5.8 mil/uL and 5.5 mil/uL. Also, in data set [4], the “Tot. Prot” value is 4.8 g/dL and 5.2 g/dL and 4.2 g/dL and 4.5 g/dL and 4.7 g/dL and 4.6 g/dL; the WBC was 10.8 thns/uL and 16.1 thns/uL and 11.3 thns/uL and 16.9 thns/uL (2×) and 12 thns/uL. The template bleeding time entry in data set [4] (summary of findings) is on record as “markedly increased”.

In the case of heparin, the “Activated Clotting Time relative to baseline” value in data set [4] (after heparin 150 U/kg) is reported as greater than 9 fold. For the same compound, the “Activated Clotting Time (ACT)” value in data set [4] (after heparin 150 U/kg (baseline 119±15 sec, n=17)) is 1114 ± 286 s.

On to “r-tPA: recombinant tissue plasminogen activator”, for which the “Hemorrhage #/total animals” value in data set [7] was 5 out of 11 and 5/11.

For the origin of these results see patent US8535662B2, “Apyrase therapy for bleeding conditions” (Apt Therapeutics, Inc., priority 2010, dated 2013).
